Data as given in patent US20220009920A1 (GB005, Inc., priority 2020, published 2022).
Where two headings read alike, the source gives them in different places.

How the values were obtained:
Experiment in all cases: Large panel kinase profiling
Type in all cases: biochemical
[1] = target: T1, CAMK2G (Homo sapiens, UniProt Q13555); conditions: 1 μM test article, 1 mM ATP
T1 construct: AssayQuant Technologies, Inc. (ran the panel)
Summary of the method: (§1)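 Profiling across the panel relied on the PhosphoSens CSox-Sensor format. A compound concentration of 1 μM and an ATP level of 1 mM were used throughout.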

[2] = target: T2, CDK9/T1 (Homo sapiens, UniProt P50750); conditions: 1 μM test article, 1 mM ATP
T2 construct: AssayQuant Technologies, Inc. (ran the panel)
Summary of the method: as §1

[3] = target: T3, CRIK/CIT (Homo sapiens, UniProt O14578); conditions: 1 μM test article, 1 mM ATP
T3 construct: AssayQuant Technologies, Inc. (ran the panel)
Summary of the method: as §1

[4] = target: T4, GRK5 (Homo sapiens, UniProt P34947); conditions: 1 μM test article, 1 mM ATP
T4 construct: AssayQuant Technologies, Inc. (service provider)
Summary of the method: as §1

[5] = target: T5, IKBKB/IKKB (Homo sapiens, UniProt O14920); conditions: 1 μM test article, 1 mM ATP
T5 construct: AssayQuant Technologies, Inc. (service provider)
T5 sequence (O14920 1-756): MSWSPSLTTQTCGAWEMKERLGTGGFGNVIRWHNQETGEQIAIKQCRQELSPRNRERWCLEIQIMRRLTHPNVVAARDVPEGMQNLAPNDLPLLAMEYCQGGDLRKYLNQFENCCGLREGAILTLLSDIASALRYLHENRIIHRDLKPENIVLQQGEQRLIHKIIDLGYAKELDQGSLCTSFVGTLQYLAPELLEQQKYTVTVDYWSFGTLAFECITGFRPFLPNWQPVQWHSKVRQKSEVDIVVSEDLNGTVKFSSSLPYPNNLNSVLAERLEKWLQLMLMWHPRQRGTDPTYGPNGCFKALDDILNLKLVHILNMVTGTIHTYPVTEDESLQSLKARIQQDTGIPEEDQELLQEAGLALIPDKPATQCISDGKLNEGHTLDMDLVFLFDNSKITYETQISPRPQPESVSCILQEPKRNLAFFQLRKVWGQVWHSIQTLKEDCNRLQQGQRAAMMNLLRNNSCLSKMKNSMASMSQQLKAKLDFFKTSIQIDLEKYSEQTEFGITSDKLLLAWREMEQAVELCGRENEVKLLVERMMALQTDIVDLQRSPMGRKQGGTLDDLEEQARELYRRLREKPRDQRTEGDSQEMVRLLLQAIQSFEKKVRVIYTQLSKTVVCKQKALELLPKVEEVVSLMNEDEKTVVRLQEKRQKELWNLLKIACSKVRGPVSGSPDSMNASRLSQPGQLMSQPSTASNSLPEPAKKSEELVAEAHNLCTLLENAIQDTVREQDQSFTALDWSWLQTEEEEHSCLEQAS
Summary of the method: as §1

[6] = target: T6, ITK (Homo sapiens, UniProt Q08881); conditions: 1 μM test article, 1 mM ATP
T6 sequence (Q08881 1-620): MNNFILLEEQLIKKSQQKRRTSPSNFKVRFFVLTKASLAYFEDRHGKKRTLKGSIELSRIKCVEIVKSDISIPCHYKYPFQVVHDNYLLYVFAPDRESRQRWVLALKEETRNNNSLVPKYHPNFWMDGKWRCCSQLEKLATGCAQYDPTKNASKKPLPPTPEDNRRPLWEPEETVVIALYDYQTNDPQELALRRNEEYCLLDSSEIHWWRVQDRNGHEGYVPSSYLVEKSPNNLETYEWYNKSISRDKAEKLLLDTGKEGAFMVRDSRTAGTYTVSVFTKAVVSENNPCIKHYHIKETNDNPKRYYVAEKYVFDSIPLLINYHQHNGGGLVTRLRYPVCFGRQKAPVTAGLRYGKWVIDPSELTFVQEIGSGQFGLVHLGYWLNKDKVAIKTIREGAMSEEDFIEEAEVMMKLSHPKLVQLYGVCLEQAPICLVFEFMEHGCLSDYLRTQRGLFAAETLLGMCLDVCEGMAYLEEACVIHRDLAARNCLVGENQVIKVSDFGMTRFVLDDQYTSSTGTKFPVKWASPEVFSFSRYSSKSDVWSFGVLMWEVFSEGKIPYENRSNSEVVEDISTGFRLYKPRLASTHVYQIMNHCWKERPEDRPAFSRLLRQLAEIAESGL
Summary of the method: as §1

[7] = target: T7, MAP4K1/HPK1 (Homo sapiens, UniProt Q92918); conditions: 1 μM test article, 1 mM ATP
T7 construct: AssayQuant Technologies, Inc. (service provider)
Summary of the method: as §1

[8] = target: T8, NTRK1/TRKA (Homo sapiens, UniProt P04629); conditions: 1 μM test article, 1 mM ATP
T8 construct: AssayQuant Technologies, Inc. (assay service)
Summary of the method: as §1

[9] = target: PTK2B (Homo sapiens, UniProt Q14289)
Summary of the method: as §1

[10] = target: ROCK2 (Homo sapiens, UniProt O75116); conditions: 1 μM test article, 1 mM ATP
Summary of the method: as §1

[11] = target: T9, RPS6KA6/RSK4 (Homo sapiens, UniProt Q9UK32); conditions: 1 μM test article, 1 mM ATP
T9 construct: AssayQuant Technologies, Inc. (contract assay)
Summary of the method: as §1

[12] = PTK2B, 1 μM test article, 1 mM ATP, read-out: % Inhibition

T7 sequence (Q92918 whole entry): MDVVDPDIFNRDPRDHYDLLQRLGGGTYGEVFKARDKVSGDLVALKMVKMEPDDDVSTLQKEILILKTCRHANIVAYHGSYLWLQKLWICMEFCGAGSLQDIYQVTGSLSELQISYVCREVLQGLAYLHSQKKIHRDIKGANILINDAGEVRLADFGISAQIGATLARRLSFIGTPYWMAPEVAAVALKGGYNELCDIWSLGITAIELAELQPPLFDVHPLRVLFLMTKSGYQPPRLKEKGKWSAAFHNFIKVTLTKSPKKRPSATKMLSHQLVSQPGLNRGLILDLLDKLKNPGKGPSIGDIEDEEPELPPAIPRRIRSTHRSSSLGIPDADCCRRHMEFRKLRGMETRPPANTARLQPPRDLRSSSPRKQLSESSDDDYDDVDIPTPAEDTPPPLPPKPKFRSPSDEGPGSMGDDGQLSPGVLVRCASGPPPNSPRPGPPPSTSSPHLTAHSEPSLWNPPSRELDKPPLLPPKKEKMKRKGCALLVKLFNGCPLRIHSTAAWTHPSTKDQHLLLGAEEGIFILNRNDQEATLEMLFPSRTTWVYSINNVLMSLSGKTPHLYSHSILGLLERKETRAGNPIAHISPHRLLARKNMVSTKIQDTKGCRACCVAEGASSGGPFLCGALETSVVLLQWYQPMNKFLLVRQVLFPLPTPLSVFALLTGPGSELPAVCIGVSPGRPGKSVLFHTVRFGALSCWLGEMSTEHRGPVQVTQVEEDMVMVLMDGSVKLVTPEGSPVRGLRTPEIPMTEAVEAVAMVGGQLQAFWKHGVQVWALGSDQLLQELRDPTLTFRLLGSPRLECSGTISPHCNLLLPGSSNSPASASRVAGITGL
Chain of PTK2B (Q14289 whole entry, species assumed): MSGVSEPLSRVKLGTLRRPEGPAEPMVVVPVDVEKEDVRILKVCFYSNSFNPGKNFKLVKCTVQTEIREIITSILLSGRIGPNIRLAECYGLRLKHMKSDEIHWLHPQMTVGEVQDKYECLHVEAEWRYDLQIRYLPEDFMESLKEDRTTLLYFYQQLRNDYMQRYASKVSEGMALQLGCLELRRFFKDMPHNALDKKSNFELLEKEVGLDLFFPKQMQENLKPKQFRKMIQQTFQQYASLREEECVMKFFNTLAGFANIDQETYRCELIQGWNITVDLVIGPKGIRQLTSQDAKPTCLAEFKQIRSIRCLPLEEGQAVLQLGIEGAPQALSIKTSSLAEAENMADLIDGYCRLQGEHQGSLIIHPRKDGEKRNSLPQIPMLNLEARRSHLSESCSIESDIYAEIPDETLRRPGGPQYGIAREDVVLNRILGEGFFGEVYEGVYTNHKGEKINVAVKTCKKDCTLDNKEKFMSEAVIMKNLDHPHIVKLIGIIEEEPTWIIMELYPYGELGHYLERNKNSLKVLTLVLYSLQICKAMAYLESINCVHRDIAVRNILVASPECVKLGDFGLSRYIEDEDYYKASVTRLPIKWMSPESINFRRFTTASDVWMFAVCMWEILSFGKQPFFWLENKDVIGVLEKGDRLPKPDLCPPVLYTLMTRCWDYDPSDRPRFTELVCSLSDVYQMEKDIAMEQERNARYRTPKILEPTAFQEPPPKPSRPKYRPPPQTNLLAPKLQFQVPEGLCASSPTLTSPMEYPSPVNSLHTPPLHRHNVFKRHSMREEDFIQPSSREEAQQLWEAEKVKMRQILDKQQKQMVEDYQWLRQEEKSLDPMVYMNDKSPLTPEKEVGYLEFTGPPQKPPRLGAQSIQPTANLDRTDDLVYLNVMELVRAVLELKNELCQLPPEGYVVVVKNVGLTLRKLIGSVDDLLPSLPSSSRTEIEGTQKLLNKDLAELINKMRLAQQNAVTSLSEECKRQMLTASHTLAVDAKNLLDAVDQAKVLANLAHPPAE
T2 sequence (P50750 whole entry, species assumed): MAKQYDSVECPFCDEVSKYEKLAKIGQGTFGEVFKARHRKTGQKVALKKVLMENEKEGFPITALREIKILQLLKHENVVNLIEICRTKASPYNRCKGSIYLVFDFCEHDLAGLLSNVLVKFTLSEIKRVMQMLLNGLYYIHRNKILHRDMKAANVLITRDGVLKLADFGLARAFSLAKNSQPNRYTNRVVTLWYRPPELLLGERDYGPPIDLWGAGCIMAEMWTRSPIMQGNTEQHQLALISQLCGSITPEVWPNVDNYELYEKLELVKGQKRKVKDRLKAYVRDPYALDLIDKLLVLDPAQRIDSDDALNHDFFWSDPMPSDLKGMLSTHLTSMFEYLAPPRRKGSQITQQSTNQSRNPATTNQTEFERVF
T2 sequence (O60563 whole entry partner, species assumed): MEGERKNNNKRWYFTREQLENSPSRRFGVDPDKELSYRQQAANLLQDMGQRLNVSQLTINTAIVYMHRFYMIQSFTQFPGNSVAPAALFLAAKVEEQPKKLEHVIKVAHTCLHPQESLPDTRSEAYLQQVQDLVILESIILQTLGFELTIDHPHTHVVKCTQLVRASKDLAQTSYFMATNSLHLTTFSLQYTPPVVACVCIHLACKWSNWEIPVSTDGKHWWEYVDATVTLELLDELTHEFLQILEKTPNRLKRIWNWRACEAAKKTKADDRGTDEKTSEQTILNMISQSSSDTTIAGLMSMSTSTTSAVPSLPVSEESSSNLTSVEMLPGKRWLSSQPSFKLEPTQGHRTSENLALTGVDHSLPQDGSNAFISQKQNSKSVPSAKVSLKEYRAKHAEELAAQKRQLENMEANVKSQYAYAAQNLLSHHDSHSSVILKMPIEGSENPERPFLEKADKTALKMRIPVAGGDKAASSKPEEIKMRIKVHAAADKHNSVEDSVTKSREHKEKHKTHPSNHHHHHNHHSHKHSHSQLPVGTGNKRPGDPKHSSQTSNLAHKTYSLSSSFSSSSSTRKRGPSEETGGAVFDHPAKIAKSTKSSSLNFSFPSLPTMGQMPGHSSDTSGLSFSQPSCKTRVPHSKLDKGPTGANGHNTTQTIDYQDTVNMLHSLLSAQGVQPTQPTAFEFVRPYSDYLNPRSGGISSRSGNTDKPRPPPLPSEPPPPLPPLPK
T8 sequence (P04629 33-796): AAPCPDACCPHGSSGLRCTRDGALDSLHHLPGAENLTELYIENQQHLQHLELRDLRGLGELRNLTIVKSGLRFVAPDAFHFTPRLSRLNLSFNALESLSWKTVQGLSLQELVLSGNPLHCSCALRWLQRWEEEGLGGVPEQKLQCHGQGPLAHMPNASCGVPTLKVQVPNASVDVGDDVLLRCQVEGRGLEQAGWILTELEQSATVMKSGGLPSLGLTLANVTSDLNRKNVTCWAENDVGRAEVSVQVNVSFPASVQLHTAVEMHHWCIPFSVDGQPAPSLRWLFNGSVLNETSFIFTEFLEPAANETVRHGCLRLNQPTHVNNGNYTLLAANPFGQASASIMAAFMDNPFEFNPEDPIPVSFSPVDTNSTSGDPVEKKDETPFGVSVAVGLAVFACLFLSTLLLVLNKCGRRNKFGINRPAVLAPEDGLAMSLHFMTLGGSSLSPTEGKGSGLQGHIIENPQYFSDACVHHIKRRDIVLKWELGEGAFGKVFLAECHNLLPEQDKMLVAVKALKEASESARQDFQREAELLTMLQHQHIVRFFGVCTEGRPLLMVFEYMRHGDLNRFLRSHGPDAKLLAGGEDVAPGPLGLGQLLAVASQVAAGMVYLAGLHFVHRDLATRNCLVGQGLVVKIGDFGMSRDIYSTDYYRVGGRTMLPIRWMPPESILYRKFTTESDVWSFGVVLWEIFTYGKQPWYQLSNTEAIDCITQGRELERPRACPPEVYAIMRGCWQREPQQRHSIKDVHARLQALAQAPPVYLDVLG
Chain of ROCK2 (O75116 whole entry, species assumed): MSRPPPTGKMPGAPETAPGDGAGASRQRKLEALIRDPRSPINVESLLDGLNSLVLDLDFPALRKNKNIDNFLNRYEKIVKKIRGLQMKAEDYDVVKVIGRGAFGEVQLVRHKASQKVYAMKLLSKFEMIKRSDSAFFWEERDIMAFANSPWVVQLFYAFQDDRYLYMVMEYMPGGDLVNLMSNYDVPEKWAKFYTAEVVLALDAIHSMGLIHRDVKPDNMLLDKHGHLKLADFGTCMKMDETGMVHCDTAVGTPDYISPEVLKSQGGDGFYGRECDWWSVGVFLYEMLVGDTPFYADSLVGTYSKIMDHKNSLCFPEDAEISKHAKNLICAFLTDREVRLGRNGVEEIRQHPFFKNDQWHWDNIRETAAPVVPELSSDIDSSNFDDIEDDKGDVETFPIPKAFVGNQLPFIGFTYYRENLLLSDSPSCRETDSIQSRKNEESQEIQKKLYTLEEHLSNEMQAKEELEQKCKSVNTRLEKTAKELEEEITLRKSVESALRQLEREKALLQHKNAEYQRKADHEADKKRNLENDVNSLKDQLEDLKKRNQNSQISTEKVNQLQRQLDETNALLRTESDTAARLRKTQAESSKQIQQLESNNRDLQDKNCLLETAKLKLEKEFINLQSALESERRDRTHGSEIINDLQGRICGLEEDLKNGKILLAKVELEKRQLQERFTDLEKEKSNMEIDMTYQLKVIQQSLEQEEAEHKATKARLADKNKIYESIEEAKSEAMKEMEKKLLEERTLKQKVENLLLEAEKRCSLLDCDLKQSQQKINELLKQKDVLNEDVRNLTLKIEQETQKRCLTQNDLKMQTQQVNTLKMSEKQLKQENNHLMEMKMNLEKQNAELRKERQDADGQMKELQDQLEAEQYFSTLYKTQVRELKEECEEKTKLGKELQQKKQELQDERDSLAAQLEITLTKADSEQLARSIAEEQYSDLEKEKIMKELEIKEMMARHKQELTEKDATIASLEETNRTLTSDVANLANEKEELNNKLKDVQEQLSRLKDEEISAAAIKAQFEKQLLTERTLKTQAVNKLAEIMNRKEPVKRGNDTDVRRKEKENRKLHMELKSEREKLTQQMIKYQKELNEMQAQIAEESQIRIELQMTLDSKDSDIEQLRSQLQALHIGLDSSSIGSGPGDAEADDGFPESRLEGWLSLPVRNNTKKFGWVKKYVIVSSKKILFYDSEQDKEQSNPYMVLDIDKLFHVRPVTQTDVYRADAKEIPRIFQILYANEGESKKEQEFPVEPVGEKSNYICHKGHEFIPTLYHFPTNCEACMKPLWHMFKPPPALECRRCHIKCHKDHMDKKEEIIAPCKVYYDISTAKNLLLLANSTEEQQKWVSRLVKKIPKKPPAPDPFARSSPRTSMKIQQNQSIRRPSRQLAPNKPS

SMILES	inhibition at 1 µM [1] [%]	inhibition at 1 µM [2] [%]	inhibition at 1 µM [3] [%]	inhibition at 1 µM [4] [%]	inhibition at 1 µM [5] [%]	inhibition at 1 µM [6] [%]	inhibition at 1 µM [7] [%]	inhibition at 1 µM [8] [%]	inhibition at 1 µM [9, 12] [%]	inhibition at 1 µM [10] [%]	inhibition at 1 µM [11] [%]	inhibition at 1 µM [9] [%]
C=CC(=O)N1CCCC(c2c(F)cc(C(N)=O)c3[nH]c4c(c23)CCCCC4)C1 (single isomer, unassigned) [Compound 5-6]	15.7	-11	-9.9	-8.8	2.5	44.8	-3.2	-5	-16.1	-28.3	-5.8	–
C=CC(=O)N1CCC[C@@H](c2c(F)cc(C(N)=O)c3[nH]c4c(c23)CC2(CC4)CC2)C1 [Compound 6-2, (S)-5-(1-acryloylpiperidin-3-yl)-6-fluoro-1,2,4,9-tetrahydrospiro[carbazole-3,1′-cyclopropane]-8-carboxamide]	-7.1	-9.9	9.1	-114	-7.6	29.2	16.3	19.6	–	0.8	-14.8	-15.4
C=CC(=O)N1CCC[C@@H](c2c(F)cc(C(N)=O)c3[nH]c4c(c23)CCC4)C1 [Compound 10-2, (S)-8-(1-acryloylpiperidin-3-yl)-7-fluoro-1,2,3,4-tetrahydrocyclo-penta[b]indole-5-carboxamide]	-37.5	-26.7	11.1	-2.2	-17	12.2	0.8	21.6	-8.8	21.2	0.3	–
